Common to all, as to type: biochemical
Test [1] concerns the target T1, Inactive α-amylase (from swine pancreas) (Sus scrofa, UniProt P00690).
T1 construct: α-amylase derived from the swine pancreas; from tissue; host or cells: swine pancreas
T1 sequence (P00690 16-511): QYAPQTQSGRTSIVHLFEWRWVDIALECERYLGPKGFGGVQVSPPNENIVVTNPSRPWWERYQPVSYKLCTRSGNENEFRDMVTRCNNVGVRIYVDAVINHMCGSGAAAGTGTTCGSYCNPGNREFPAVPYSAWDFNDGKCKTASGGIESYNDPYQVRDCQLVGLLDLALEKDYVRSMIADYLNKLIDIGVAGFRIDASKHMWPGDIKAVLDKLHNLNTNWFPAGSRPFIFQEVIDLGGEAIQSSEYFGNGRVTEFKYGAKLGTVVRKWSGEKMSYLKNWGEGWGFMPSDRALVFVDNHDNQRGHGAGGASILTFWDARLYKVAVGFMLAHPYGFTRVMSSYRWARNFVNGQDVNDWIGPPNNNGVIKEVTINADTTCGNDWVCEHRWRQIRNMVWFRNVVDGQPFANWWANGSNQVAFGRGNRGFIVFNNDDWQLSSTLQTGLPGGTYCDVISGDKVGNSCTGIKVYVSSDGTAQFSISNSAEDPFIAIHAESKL
Briefly: Residual activity of α-amylase in test enzyme solutions after storage. To be noted: after storage at 35° C. for 7 days. How it is done: [table] In the test enzyme solutions of the reagents for the determination of calcium with the reagent formulations as described above in Example 1, glucosyl-α-cyclodextrin, maltosyl-α-cyclodextrin, glucosyl-β-cyclodextrin, or maltosyl-β-cyclodextrin was independently added as a cyclodextrin derivative at 12 mM. […] Instead of the cyclodextrin derivatives and the SH group containing compounds in the reagent formulations as described above in Example 1, glucose (100 mM), maltose (50 mM), maltotriose (30 mM), α-cyclodextrin (1.5 mM), β-cyclodextrin (1.5 mM), γ-cyclodextrin (1.5 mM), N-acetylcysteine (20 mM), or reduced glutathione (20 mM) was independently added to have the respective concentrations as shown in Table 3.

Test [2] addresses T1, Inactive α-amylase (from swine pancreas). Briefly: Relative sensitivity in determination of calcium with 10 mg/dl calcium standard solution. To be noted: by addition of the agent, versus no addition. Here is the method: [table] In the test enzyme solutions of the reagents for the determination of calcium with the reagent formulations as described above in Example 1, glucosyl-α-cyclodextrin, maltosyl-α-cyclodextrin, glucosyl-β-cyclodextrin, or maltosyl-β-cyclodextrin was independently added as a cyclodextrin derivative at 0, 1.5, 3, 6, or 12 mM. To the test enzyme solutions containing 3 mM glucosyl-β-cyclodextrin was further added independently N-acetylcysteine or reduced glutathione at 2.5, 5, 10, or 20 mM, and the determination of calcium ions with a calcium standard solution was carried out as described below. According to the method as described below, the determination of the amount of calcium was carried out for test solutions just after the preparation with 10 mg/dl calcium standard solution as a sample, and the relative sensitivity (%) was determined under the respective reagent conditions when the sensitivity in the case of no addition of cyclodextrin derivatives was taken as 100%. B. Method for the Determination of the Amount of Calcium To 5.8 μl of a sample was added 180 μl of a test enzyme solution, and the mixture was pre-warmed for 5 minutes, to which 90 μl of a test substrate solution was further added to make the reaction start. […] The measuring apparatus used was HITACHI Automatic Analyzer model 7170. The measurement wavelength was 405 nm for the principal wavelength and 546 nm for the second wavelength. The measurement was carried out at 37° C. […] The test solutions thus prepared were used for the determination of the calcium standard solution in the same manner as described in Example 3.

Test [3] has the same target. Described as above.

Each structure is given as a SMILES string.

The term remaining activity denotes the share of the control activity or signal that is left under treatment. High values mean a small loss of activity, low ones a large loss of activity.

In test [1] (agent 50 mM), `OC[C@H]1O[C@H](O[C@H]2[C@H](O)[C@@H](O)C(O)O[C@@H]2CO)[C@H](O)[C@@H](O)[C@@H]1O` (mixture of isomers) [maltose] came in with a remaining activity at 50000 µM of 73.5%. In addition, in test [2], the “sensitivity in the determination of the standard solution (in words)” value is reported as “remarkably decreased”. For the same molecule, the “Relative sensitivity (%) when sensitivity in case of no addition is taken as 100%” value in test [3] (agent 6.3 mM) stood at 99.7%; in test [3] (agent 12.5 mM) it was 89.3%; in test [3] (agent 25 mM), 83.9%; in test [3] (agent 50 mM), 70.1%.
In the case of `OCC1OC(OC2C(CO)OC(OC3C(CO)OC(O)C(O)C3O)C(O)C2O)C(O)C(O)C1O` (stereo not drawn) [maltotriose], the “Residual activity (%)” value in test [1] (agent 30 mM) amounted to 77.3%. Further, in test [2], the “sensitivity in the determination of the standard solution (in words)” value is reported as “remarkably decreased”. In addition, the “Relative sensitivity (%) when sensitivity in case of no addition is taken as 100%” value came out at 47.1% in test [3] (agent 3.8 mM), 24.3% in test [3] (agent 7.5 mM), 7.4% in test [3] (agent 15 mM) and 4.6% in test [3] (agent 30 mM).

(Values after US6420129B1, “Reagent composition for determination of electrolytes” (Toyo Boseki Kabushiki Kaisha, priority 1998, dated 2002).)
